# From patent US20250222028A1, “ENGINEERED IMMUNE CELL PLATFORM” (Cancer Research Technology Limited, priority 2022, published 2025)
# Legend:
# NK cells = assay: Flow cytometric analysis of Granzyme B and IFNγ in NK cells; assay type: cell-based, mice; details: 10 μM, overnight (~18 hours)
# Experimental: FIG. 10. GzmB content and IFNγ secretion are unaffected by Gli inhibition in NK cells. NK cells were isolated from C57BL/6 mice and treated with 10 μM GANT61 or carrier control (EtOH) overnight (˜18 hours) prior to analysis of intracellular granzyme B (GzmB) and IFNγ expression by flow cytometry. (A) Representative flow cytometry plots. (B) Quantification of flow cytometry plots. Data is from n=2 mice, 1 independent experiment.
# (§1) To investigate this further, the effect of GANT61 inhibition on Granzyme B and IFNγ secretion was investigated. Cytotoxic CD4+ cells were generated from OT-II mice and treated with 5 μM GANT61 or carrier control on day 7 for 24 h prior to flow cytometric analysis of Granzyme B (GzmB) and IFNγ levels on day 8. NK cells were isolated from C57BL/6 mice and treated with 10 μM GANT61 or carrier control (EtOH) overnight (˜18 hours) prior to analysis of intracellular granzyme B (GzmB) and IFNγ expression by flow cytometry. In both cytotoxic CD4+ cells (FIG. 9) and NK cells (FIG. 10), the GzmB content and IFNγ secretion were unaffected by Gli inhibition.
# RMA/S tumour cells [1] = assay: LDH killing assay, murine NK cells with NK-sensitive RMA/S cells; assay type: cell-based; details: 5 μM GANT61 vs carrier control
# Experimental: (§2) FIG. 4. Gli1 is important for specific tumour cell killing by murine NK cells. (A) NK cells were isolated from WT C57BL/6 mice and were treated using either the Gli1/Gli2 inhibitor GANT61 (squares) or carrier control (circles). LDH killing assays (left panel) and VITAL assays (right panel) were performed to assess specific cell killing of NK-sensitive RMA/S tumour cells. Left panel: Representative data of n=3 independent experiments. Right panel: data from 2 individual mice per genotype. (B) To specifically investigate the contribution of Gli1 towards NK cell effector function, LDH killing assays (left panel) and VITAL assays (right panel) were performed using NK cells isolated from both WT (circles) and Gli1 knockout (KO, squares) mice. Left panel: representative data from n=2 independent experiments. Right panel: data from 2 individual mice per genotype.
# (§3) It was hypothesised that the therapeutic effect of L-type Cav channel agonists may be conserved between CD8+ T and NK cells. To investigate this hypothesis, NK cells were isolated from spleens of C57BL/6 wildtype mice using a MACS negative isolation protocol, and expanded in vitro for 7 days in the presence of 500 IU/L IL-2. […]
# cytotoxic CD4+ T cells = assay: Flow cytometric analysis of Granzyme B and IFNγ in cytotoxic CD4+ T cells; assay type: cell-based, mice; details: 5 μM, 24 h
# Experimental: FIG. 9. GzmB content and IFNγ secretion are unaffected by Gli inhibition in cytotoxic CD4+ T cells. Cytotoxic CD4+ cells were generated from OT-II mice and treated with 5 μM GANT61 or carrier control on day 7 for 24 h prior to flow cytometric analysis of Granzyme B (GzmB) and IFNγ levels on day 8. (A) Representative flow cytometry plots in unstimulated (top panel) or restimulated CD4+ T cells (bottom panel). (B) Quantification of steady state GzmB levels and IFNγ levels upon restimulation. Data is from n=3 independent experiments.
# as §1
# K562 target cells = assay: Flow-cytometry based killing assay, human Vγ9Vδ2 gammadelta T cells with K562 target cells; assay type: cell-based; details: pre-treated overnight with GANT61, co-culture 24 h
# Experimental: FIG. 12. GLI1 is important for tumour cell killing of human Vγ9Vδ2 gammadelta T cells and treatment with L-type voltage gated Ca2+ channel agonist FPL 64176 increases killing capacity. PBMCs were isolated from Buffy Coats of healthy donors using SepMate PBMC Isolation Tubes. Vγ9Vδ2 expansion was induced by plating PBMCs at 1×10^6 concentration with 1 μM of Zoledronate in the presence of 100 IU/mL IL-2 and 120 IU/mL IL-15. Cells were split every 2-3 days from day 6 until day 20. Killing assays were conducted between day 16-20. (A) Vγ9Vδ2 T lymphocytes were incubated with Gli1/2 inhibitor GANT61 or EToH (carrier control) overnight and subsequently co-cultured with K562 target cells for 24 h at the indicated effector to target ratios and subjected to a flow-cytometry based killing assay. n=1 individual donor. (B) Vγ9Vδ2 cells were pre-incubated with 10 μM FPL 64176 or EToH (carrier control) before being co-cultured with K562 target cells at indicated effector to target ratios and subjected to a flowcytometric cytotoxicity assay in the presence of 10 μM FPL 64176 or EToH (carrier control). Killing was assessed after 24 hours. Tumour cell killing normalised to carrier treated cells at a 10:1 effector:target ratio. n=4 individual healthy donors from 2 independent experiments. […]
# P815 target cells = assay type: cell-based, human
# Experimental: FIG. 15. GLI inhibitor GANT61 reduces tumour cell killing of human CD8+ cytotoxic T lymphocytes. PBMCs were isolated from Buffy Coats of healthy donors using SepMate PBMC Isolation Tubes. CD8+ T cells were isolated using negative selection (Miltenyi Biotec, CD8+ T Cell Isolation Kit) and plated with ImmunoCult™ Human CD3/CD28/CD2 T Cell Activator at 25 μl/mL in TexMACS cell culture media supplemented with 1001 U/mL human IL-2 and 100 U/ml Penicillin/Streptomycin. Human CTLs were incubated with Gli1/2 inhibitor GANT61 or EToH (carrier control) overnight and subsequently co-cultured with anti-CD3ε pulsed P815 target cells for 3 h at the indicated effector to target ratios and subjected to an LDH cytotoxicity assay. (A) Representative graph, (B) Quantification of N=3 donors normalised to killing of carrier treated cells at a 10:1 effector:target ratio. Error bars indicate SD. n=3 donors from 2 independent experiments. It is also known that Hh signalling in murine CD8+ T cells is not inducible via administration of extracellular Hh ligands (de la Roche et al. (2013)). Instead, Hh induction occurs via the modulation of L-type voltage-gated calcium (Cav) channels downstream of the T cell receptor. For example, Hanna et al. (2021) report that nifedipine-sensitive Cavs control Gli1 induction in naïve CD8+ T cells and CD8+ CTLs following TCR stimulation. […]
# RMA/S tumour cells [2] = assay: VITAL assay, murine NK cells with NK-sensitive RMA/S cells; assay type: cell-based; details: 5 μM GANT61 vs carrier control
# Experimental: as §2, §3
# [3] = test system: B cells (as target cells); assay: LDH assay, murine cytotoxic CD4+ T cells (OT-II) with B cells as target cells; assay type: cell-based; details: 5 μM, 24 h prior to co-culture, vs carrier control
# Experimental: FIG. 8. Gli1 mediates specific cell killing by murine cytotoxic CD4+ T cells. Cytotoxic CD4+ T cells were generated from OT-II mice and treated with 5 μM Gli1/Gli2 inhibitor GANT61 (grey) or carrier control (black) for 24 hours before an LDH assay was performed to assess specific cell killing. Data is from n=3 independent experiments.
# Experiments 1, 2, 3 and 4 identify Gli1 transcription as a mediator of specific cell killing in CD8+ CTLs and in NK cells, in humans and in mice. To investigate whether Gli1 also plays a role in driving the effector function of CD4+ T cells, cells were isolated from the spleens of OT-II mice and CTLs were generated. Cells were treated using GANT61 at a concentration of 5 μM or carrier control, 24 h prior to being co-cultured with B cells (as target cells) at the effector:target ratios indicated in FIG. 8.
compound,measurement,setting,value
CN(C)c1ccccc1CN1CCCN(Cc2ccccc2N(C)C)C1c1ccncc1 [GANT61],GzmB content,NK cells,unaffected
same,IFNγ secretion,NK cells,unaffected
same,decrease in cell killing,RMA/S tumour cells [1],~15%
same,GzmB content,cytotoxic CD4+ T cells,unaffected
same,IFNγ secretion,cytotoxic CD4+ T cells,unaffected
same,killing capacity of K562 target cells by gammadelta T cells,K562 target cells,reduced killing capacity
same,tumour cell killing of human CD8+ cytotoxic lymphocytes,P815 target cells,reduces
same,specific tumour cell killing,RMA/S tumour cells [2],greatly reduced
same,reduction in specific cell killing,[3],50%
